Data from the kinase profiling compilation of Christmann-Franck et al. (2016).

Key:
Experiment in all cases: radiometric filter-binding kinase assay, Kinase HotSpot
AURKA (human) = AURKA (human) (UniProt O14965); conditions: compound 0.5 µM; ATP 10 µM
BMX (human) = BMX (human) (UniProt P51813); conditions: compound 0.5 µM; ATP 10 µM
BRSK2 (human) = BRSK2 (human) (UniProt Q8IWQ3); conditions: compound 0.5 µM; ATP 10 µM
CDK6 CCND3 (human) = CDK6 CCND3 (human) (UniProt P30281+Q00534); conditions: compound 0.5 µM
CHEK2 (human) = CHEK2 (human) (UniProt O96017); conditions: compound 0.5 µM; ATP 10 µM
CLK2 (human) = CLK2 (human) (UniProt P49760); conditions: compound 0.5 µM; ATP 10 µM
CSK (human) = CSK (human) (UniProt P41240); conditions: compound 0.5 µM; ATP 10 µM
CSNK1D (human) = CSNK1D (human) (UniProt P48730); conditions: compound 0.5 µM
CSNK2A2 (human) = CSNK2A2 (human) (UniProt P19784); conditions: compound 0.5 µM; ATP 10 µM
DAPK3 (human) = DAPK3 (human) (UniProt O43293); conditions: compound 0.5 µM; ATP 10 µM
DMPK (human) = DMPK (human) (UniProt Q09013); conditions: compound 0.5 µM; ATP 10 µM
DYRK1B (human) = DYRK1B (human) (UniProt Q9Y463); conditions: compound 0.5 µM; ATP 10 µM
EPHA5 (human) = EPHA5 (human) (UniProt P54756); conditions: compound 0.5 µM; ATP 10 µM
ERBB2 (human) = ERBB2 (human) (UniProt P04626); conditions: compound 0.5 µM; ATP 10 µM
FES (human) = FES (human) (UniProt P07332); conditions: compound 0.5 µM; ATP 10 µM
FGFR3 (human) = FGFR3 (human) (UniProt P22607); conditions: compound 0.5 µM; ATP 10 µM
FGR (human) = FGR (human) (UniProt P09769); conditions: compound 0.5 µM; ATP 10 µM
Chain of FGR (human) (P09769 whole entry, looked up): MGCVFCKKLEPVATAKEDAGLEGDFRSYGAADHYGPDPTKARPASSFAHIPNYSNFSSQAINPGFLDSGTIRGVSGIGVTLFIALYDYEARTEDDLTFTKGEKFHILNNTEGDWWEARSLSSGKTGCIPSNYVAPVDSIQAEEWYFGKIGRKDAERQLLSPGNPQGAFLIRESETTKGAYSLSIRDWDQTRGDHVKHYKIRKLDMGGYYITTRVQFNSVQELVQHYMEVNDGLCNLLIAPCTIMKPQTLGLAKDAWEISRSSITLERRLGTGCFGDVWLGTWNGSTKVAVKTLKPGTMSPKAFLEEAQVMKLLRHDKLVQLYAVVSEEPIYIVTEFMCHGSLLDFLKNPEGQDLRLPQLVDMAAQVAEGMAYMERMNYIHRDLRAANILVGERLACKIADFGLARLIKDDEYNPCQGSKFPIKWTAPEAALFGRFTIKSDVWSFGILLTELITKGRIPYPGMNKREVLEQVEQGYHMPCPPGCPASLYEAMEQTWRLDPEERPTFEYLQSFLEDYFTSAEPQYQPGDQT

FRK (human) = FRK (human) (UniProt P42685); conditions: compound 0.5 µM; ATP 10 µM
GRK6 (human) = GRK6 (human) (UniProt P43250); conditions: compound 0.5 µM; ATP 10 µM
GSK3B (human) = GSK3B (human) (UniProt P49841); conditions: compound 0.5 µM; ATP 10 µM
HIPK2 (human) = HIPK2 (human) (UniProt Q9H2X6); conditions: compound 0.5 µM; ATP 10 µM
HIPK4 (human) = HIPK4 (human) (UniProt Q8NE63); conditions: compound 0.5 µM; ATP 10 µM
JAK2 JH1 JH2 (human) = JAK2 JH1 JH2 (human) (UniProt O60674); conditions: compound 0.5 µM; ATP 10 µM
MAP3K10 (human) = MAP3K10 (human) (UniProt Q02779); conditions: compound 0.5 µM; ATP 10 µM
MAP4K4 (human) = MAP4K4 (human) (UniProt O95819); conditions: compound 0.5 µM; ATP 10 µM
Chain of MAP4K4 (human) (O95819 whole entry, looked up): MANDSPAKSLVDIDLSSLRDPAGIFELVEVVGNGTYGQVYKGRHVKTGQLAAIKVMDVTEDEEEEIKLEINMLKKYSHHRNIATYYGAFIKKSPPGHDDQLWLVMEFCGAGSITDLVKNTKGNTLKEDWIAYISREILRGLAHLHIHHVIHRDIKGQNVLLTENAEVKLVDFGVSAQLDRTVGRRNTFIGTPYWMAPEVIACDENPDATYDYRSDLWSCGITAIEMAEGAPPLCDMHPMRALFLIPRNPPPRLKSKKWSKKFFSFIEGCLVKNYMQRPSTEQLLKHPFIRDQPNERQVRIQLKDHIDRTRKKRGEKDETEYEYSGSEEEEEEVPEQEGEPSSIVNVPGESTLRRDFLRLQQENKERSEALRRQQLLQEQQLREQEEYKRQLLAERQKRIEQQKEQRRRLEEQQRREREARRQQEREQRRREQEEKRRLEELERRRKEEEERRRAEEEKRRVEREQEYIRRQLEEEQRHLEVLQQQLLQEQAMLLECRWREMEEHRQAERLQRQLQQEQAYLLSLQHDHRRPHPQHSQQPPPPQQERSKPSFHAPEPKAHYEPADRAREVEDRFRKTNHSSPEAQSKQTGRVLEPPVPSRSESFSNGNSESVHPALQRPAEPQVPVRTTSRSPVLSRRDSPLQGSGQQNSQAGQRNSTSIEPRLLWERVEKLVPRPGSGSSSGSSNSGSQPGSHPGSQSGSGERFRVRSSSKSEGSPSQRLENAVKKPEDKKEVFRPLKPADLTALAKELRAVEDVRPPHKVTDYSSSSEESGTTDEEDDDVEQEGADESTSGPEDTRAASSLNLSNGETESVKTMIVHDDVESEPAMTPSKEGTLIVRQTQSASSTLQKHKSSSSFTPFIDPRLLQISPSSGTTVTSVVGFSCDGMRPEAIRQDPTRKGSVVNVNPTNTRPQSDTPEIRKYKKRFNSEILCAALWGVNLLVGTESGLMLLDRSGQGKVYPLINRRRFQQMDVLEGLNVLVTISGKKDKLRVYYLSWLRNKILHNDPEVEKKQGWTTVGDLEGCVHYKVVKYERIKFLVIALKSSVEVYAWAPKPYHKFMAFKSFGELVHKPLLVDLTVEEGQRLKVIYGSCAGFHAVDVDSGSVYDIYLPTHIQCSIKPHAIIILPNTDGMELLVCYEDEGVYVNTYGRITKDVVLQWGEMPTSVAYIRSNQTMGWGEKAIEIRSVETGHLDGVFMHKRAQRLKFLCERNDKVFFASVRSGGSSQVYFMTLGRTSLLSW

MERTK (human) = MERTK (human) (UniProt Q12866); conditions: compound 0.5 µM; ATP 10 µM
NEK1 (human) = NEK1 (human) (UniProt Q96PY6); conditions: compound 0.5 µM; ATP 10 µM
NEK11 (human) = NEK11 (human) (UniProt Q8NG66); conditions: compound 0.5 µM; ATP 10 µM
Chain of NEK11 (human) (Q8NG66 whole entry, looked up): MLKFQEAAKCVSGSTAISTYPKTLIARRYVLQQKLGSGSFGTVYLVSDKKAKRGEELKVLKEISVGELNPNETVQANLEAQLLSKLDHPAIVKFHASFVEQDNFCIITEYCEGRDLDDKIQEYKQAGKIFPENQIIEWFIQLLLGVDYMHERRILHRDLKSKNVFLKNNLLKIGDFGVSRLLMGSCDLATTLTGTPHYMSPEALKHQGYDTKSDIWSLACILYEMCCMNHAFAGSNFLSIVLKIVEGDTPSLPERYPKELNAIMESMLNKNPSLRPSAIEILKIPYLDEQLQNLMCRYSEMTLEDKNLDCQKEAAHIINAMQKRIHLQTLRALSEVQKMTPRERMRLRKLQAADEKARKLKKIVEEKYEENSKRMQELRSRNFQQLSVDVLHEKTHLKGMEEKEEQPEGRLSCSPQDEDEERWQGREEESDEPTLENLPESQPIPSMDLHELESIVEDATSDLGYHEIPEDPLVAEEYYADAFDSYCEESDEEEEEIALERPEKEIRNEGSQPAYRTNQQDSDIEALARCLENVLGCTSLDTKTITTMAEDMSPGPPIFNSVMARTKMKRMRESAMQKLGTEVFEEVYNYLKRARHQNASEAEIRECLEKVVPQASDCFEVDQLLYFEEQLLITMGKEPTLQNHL

NEK4 (human) = NEK4 (human) (UniProt P51957); conditions: compound 0.5 µM; ATP 10 µM
NTRK2 (human) = NTRK2 (human) (UniProt Q16620); conditions: compound 0.5 µM; ATP 10 µM
Chain of NTRK2 (human) (Q16620 whole entry, looked up): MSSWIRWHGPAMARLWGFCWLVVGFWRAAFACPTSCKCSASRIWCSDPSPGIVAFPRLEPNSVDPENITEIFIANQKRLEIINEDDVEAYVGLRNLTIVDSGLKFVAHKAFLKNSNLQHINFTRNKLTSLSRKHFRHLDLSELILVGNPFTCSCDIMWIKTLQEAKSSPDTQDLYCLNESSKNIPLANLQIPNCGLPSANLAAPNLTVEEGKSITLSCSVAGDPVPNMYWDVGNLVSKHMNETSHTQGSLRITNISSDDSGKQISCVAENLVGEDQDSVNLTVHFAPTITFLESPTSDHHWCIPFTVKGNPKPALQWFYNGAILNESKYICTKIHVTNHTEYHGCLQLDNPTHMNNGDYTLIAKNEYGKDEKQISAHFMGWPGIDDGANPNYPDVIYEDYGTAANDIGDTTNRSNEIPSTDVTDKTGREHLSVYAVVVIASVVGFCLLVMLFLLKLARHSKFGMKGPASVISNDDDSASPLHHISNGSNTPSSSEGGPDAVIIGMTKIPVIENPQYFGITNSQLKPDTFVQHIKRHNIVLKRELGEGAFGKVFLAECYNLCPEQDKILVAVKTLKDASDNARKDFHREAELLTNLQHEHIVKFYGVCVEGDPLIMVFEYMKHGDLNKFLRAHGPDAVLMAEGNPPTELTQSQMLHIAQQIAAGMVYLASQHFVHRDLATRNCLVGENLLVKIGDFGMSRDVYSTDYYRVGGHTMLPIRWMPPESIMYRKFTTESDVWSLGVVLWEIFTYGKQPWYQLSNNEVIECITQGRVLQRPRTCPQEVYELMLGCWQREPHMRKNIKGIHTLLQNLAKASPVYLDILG

PRKCB1 (human) = PRKCB1 (human) (UniProt P05771); conditions: compound 0.5 µM; ATP 10 µM
Chain of PRKCB1 (human) (P05771 whole entry, looked up): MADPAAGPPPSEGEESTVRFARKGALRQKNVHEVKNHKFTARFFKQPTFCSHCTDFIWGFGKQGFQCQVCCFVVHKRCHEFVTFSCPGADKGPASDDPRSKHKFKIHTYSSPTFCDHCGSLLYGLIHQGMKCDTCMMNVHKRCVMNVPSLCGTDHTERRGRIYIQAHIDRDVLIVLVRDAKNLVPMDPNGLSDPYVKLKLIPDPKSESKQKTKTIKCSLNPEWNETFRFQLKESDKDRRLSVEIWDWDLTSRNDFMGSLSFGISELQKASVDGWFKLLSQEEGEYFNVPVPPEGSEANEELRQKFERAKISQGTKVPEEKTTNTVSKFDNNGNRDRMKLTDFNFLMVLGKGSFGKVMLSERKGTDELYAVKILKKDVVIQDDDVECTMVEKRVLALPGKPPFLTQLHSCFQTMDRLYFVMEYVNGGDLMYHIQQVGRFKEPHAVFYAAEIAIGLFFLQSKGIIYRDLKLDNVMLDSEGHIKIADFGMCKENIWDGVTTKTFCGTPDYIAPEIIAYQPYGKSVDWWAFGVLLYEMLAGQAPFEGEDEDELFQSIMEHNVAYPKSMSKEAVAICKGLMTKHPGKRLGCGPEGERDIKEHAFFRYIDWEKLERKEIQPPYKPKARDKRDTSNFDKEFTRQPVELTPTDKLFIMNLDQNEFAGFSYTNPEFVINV

PRKCD (human) = PRKCD (human) (UniProt Q05655); conditions: compound 0.5 µM; ATP 10 µM
PRKCH (human) = PRKCH (human) (UniProt P24723); conditions: compound 0.5 µM; ATP 10 µM
PRKCI (human) = PRKCI (human) (UniProt P41743); conditions: compound 0.5 µM; ATP 10 µM
ROCK1 (human) = ROCK1 (human) (UniProt Q13464); conditions: compound 0.5 µM; ATP 10 µM
SGK3 (human) = SGK3 (human) (UniProt Q96BR1); conditions: compound 0.5 µM; ATP 10 µM
Chain of SGK3 (human) (Q96BR1 whole entry, looked up): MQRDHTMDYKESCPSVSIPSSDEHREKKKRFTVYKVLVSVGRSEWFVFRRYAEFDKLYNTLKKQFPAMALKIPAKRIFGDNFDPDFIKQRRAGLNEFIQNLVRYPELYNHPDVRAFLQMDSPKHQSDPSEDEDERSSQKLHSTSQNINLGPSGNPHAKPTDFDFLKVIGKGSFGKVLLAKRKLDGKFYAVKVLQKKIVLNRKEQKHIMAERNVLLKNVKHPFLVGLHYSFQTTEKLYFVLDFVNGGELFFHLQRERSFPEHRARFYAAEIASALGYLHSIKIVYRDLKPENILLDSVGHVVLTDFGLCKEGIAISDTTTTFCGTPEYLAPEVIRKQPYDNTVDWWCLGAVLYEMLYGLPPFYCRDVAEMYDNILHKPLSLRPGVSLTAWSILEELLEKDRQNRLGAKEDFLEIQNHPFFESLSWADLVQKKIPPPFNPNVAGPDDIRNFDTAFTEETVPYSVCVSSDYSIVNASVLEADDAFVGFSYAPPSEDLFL

SLK (human) = SLK (human) (UniProt Q9H2G2); conditions: compound 0.5 µM; ATP 10 µM
STK10 (human) = STK10 (human) (UniProt O94804); conditions: compound 0.5 µM; ATP 10 µM
STK24 (human) = STK24 (human) (UniProt Q9Y6E0); conditions: compound 0.5 µM; ATP 10 µM
STK4 (human) = STK4 (human) (UniProt Q13043); conditions: compound 0.5 µM; ATP 10 µM
TEC (human) = TEC (human) (UniProt P42680); conditions: compound 0.5 µM; ATP 10 µM
WEE1 (human) = WEE1 (human) (UniProt P30291); conditions: compound 0.5 µM; ATP 10 µM
Chain of WEE1 (human) (P30291 whole entry, looked up): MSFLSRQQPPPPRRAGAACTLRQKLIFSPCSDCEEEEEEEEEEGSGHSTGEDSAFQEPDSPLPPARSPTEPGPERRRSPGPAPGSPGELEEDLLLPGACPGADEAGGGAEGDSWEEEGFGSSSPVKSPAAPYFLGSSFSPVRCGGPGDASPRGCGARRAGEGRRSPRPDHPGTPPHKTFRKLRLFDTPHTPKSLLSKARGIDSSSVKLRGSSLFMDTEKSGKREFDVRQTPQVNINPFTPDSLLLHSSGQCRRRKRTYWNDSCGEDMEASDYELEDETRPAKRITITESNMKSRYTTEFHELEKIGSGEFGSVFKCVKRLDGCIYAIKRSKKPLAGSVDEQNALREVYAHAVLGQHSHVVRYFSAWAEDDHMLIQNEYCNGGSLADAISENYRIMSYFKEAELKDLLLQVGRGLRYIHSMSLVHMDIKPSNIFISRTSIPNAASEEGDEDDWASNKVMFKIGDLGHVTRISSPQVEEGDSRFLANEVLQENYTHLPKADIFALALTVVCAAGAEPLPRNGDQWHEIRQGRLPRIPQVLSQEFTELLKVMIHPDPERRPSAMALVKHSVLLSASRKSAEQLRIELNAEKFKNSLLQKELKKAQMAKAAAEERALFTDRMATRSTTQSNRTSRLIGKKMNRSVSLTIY

O=C(c1ccccc1)c1ccc(N2CCOCC2)cc1O
residual activity (AURKA (human)): 108% | residual activity (BMX (human)): 90.4% | residual activity (BRSK2 (human)): 95.5% | residual activity (CDK6 CCND3 (human); ATP 10 µM): 97.7% | residual activity (CHEK2 (human)): 106% | residual activity (CLK2 (human)): 106% | residual activity (CSK (human)): 101% | residual activity (CSNK1D (human); ATP 10 µM): 100% | residual activity (CSNK2A2 (human)): 96.8% | residual activity (DAPK3 (human)): 100% | residual activity (DMPK (human)): 98.9% | residual activity (DYRK1B (human)): 105% | residual activity (EPHA5 (human)): 112% | residual activity (ERBB2 (human)): 94.8% | residual activity (FES (human)): 95.2% | residual activity (FGFR3 (human)): 104% | residual activity (FGR (human)): 104% | residual activity (FRK (human)): 102% | residual activity (GRK6 (human)): 99.4% | residual activity (GSK3B (human)): 118% | residual activity (HIPK2 (human)): 105% | residual activity (HIPK4 (human)): 99.5% | residual activity (JAK2 JH1 JH2 (human)): 94.1% | residual activity (MAP3K10 (human)): 100% | residual activity (MAP4K4 (human)): 86.4% | residual activity (MERTK (human)): 94.5% | residual activity (NEK1 (human)): 115% | residual activity (NEK11 (human)): 97.7% | residual activity (NEK4 (human)): 97.7% | residual activity (NTRK2 (human)): 92.7% | residual activity (PRKCB1 (human)): 90.1% | residual activity (PRKCD (human)): 98.8% | residual activity (PRKCH (human)): 70% | residual activity (PRKCI (human)): 98.3% | residual activity (ROCK1 (human)): 93.4% | residual activity (SGK3 (human)): 105% | residual activity (SLK (human)): 106% | residual activity (STK10 (human)): 97.9% | residual activity (STK24 (human)): 89% | residual activity (STK4 (human)): 103% | residual activity (TEC (human)): 119% | residual activity (WEE1 (human)): 94.2%

Cc1cc(Nc2nc(-c3ccccc3)nc3ccccc23)n[nH]1
residual activity (AURKA (human)): 19.8% | residual activity (BMX (human)): 41.1% | residual activity (BRSK2 (human)): 61.4% | residual activity (CDK6 CCND3 (human); ATP 10 µM): 58.4% | residual activity (CHEK2 (human)): 31.3% | residual activity (CLK2 (human)): 91.7% | residual activity (CSK (human)): 98.4% | residual activity (CSNK1D (human); ATP 10 µM): 96.7% | residual activity (CSNK2A2 (human)): 15% | residual activity (DAPK3 (human)): 57.5% | residual activity (DMPK (human)): 100% | residual activity (DYRK1B (human)): 90.8% | residual activity (EPHA5 (human)): 90.6% | residual activity (ERBB2 (human)): 108% | residual activity (FES (human)): 94.7% | residual activity (FGFR3 (human)): 71.7% | residual activity (FGR (human)): 54.8% | residual activity (FRK (human)): 72.5% | residual activity (GRK6 (human)): 75.8% | residual activity (GSK3B (human)): 27.9% | residual activity (HIPK2 (human)): 101% | residual activity (HIPK4 (human)): 102% | residual activity (JAK2 JH1 JH2 (human)): 52.6% | residual activity (MAP3K10 (human)): 75.4% | residual activity (MAP4K4 (human)): 25.7% | residual activity (MERTK (human)): 72.2% | residual activity (NEK1 (human)): 93% | residual activity (NEK11 (human)): 105% | residual activity (NEK4 (human)): 95% | residual activity (NTRK2 (human)): 4.37% | residual activity (PRKCB1 (human)): 99.9% | residual activity (PRKCD (human)): 91.3% | residual activity (PRKCH (human)): 89.6% | residual activity (PRKCI (human)): 82.6% | residual activity (ROCK1 (human)): 98.8% | residual activity (SGK3 (human)): 104% | residual activity (SLK (human)): 42.2% | residual activity (STK10 (human)): 56.2% | residual activity (STK24 (human)): 66% | residual activity (STK4 (human)): 58% | residual activity (TEC (human)): 106% | residual activity (WEE1 (human)): 88%

O=c1[nH]c2ccccc2n1C1CCN(Cc2ccc(-c3nc4cc5[nH]cnc5cc4nc3-c3ccccc3)cc2)CC1
residual activity (AURKA (human)): 99% | residual activity (BMX (human)): 108% | residual activity (BRSK2 (human)): 106% | residual activity (CDK6 CCND3 (human)): 99.1% | residual activity (CHEK2 (human)): 100% | residual activity (CLK2 (human)): 114% | residual activity (CSK (human)): 101% | residual activity (CSNK1D (human)): 100% | residual activity (CSNK2A2 (human)): 101% | residual activity (DAPK3 (human)): 106% | residual activity (DMPK (human)): 98% | residual activity (DYRK1B (human)): 97.9% | residual activity (EPHA5 (human)): 102% | residual activity (ERBB2 (human)): 88.9% | residual activity (FES (human)): 101% | residual activity (FGFR3 (human)): 101% | residual activity (FGR (human)): 95.7% | residual activity (FRK (human)): 102% | residual activity (GRK6 (human)): 88% | residual activity (GSK3B (human)): 113% | residual activity (HIPK2 (human)): 110% | residual activity (HIPK4 (human)): 99.3% | residual activity (JAK2 JH1 JH2 (human)): 104% | residual activity (MAP3K10 (human)): 102% | residual activity (MAP4K4 (human)): 99.5% | residual activity (MERTK (human)): 96.2% | residual activity (NEK1 (human)): 101% | residual activity (NEK11 (human)): 86.4% | residual activity (NEK4 (human)): 106% | residual activity (NTRK2 (human)): 99.4% | residual activity (PRKCB1 (human)): 108% | residual activity (PRKCD (human)): 98.8% | residual activity (PRKCH (human)): 101% | residual activity (PRKCI (human)): 97% | residual activity (ROCK1 (human)): 101% | residual activity (SGK3 (human)): 108% | residual activity (SLK (human)): 97.7% | residual activity (STK10 (human)): 92.6% | residual activity (STK24 (human)): 90.7% | residual activity (STK4 (human)): 95.2% | residual activity (TEC (human)): 162% | residual activity (WEE1 (human)): 93.9%
